Assay results as given in publication PMC8292346, “Dysfunction of the key ferroptosis-surveilling systems hypersensitizes mice to tubular necrosis during acute kidney injury” (Nature Communications, 2021).
Values joined by “and” are separate entries in the source; they are usually repeats but may differ in a detail not shown here. Equal entries are not always repeated. “Also recorded” adds a separate entry of the source.

Legend:
[1] = tested on: primary murine tubular cells; assay: RSL3-induced LDH release of primary kidney tubular cells; assay type: cell-based; conditions: RSL3 14 h
Method: The LDH release of cells or of freshly isolated kidney tubules was measured according to manufacturers’ instructions at indicated time points. In brief, an aliquot of the supernatant was taken and Lysis Solution was added for 45 min to induce maximal LDH release before another aliquot of the supernatant was taken. Subsequently, the supernatants were incubated with CytoTox 96® Reagent for 15 min protected from light at room temperature before adding Stop Solution. Absorbance was measured at 490 nm.
Generation, cell culture, and induction of cell death in primary murine tubular cells. Murine tubular cells were generated by outgrowth from isolated renal tubules (see above). Primary murine tubules were placed in six-well plates containing Dulbecco’s Modified Eagle Medium F-12 Nutrient Mixture without phenol red (DMEM/F12, Thermo Fisher), supplemented with 0.01 mg/ml recombinant human insulin, 5.5 μg/ml human transferrin, 0.005 μg/ml Na2SeO3 (ITS without linoleic acid, Sigma Aldrich), 50 nM hydrocortisone, 100 U/ml penicillin, and 100 μg/ml streptomycin (Pen/Strep, Thermo Fisher). After two days, the outgrown primary murine tubular cells were washed with PBS and a fresh medium was added. When the number of primary murine tubular cells reached approximately 50% confluence, the cells were removed from the six-well plates using Trypsin-EDTA (Thermo Fisher), washed with medium and a Ficoll Paque Plus (Sigma Aldrich) gradient was performed to remove any dead cells, and debris from the murine renal tubules. Cells were washed twice with PBS and seeded in six-well plates with medium. Once the number of grown cells reached approximately 50% confluence, they were washed with PBS and treated with type 2 FIN: RSL3 (also see Supplementary Table 2 for details). After 14 h, medium and cells were collected and prepared for LDH release assay. Images of the treated primary murine tubular cells were obtained using a 20×/0.30 PH1 objective on a Leica DMi1 microscope.

NIH3T3 cells [2] = assay: Ferroptosis inducers (FINs)/ferroptocide, 7-AAD/annexin V flow cytometry; assay type: cell-based, murine; conditions: alone (DMSO) or with Fer-1 1 µM, Nec-1s 30 µM, Nec-1f 30 µM
In short: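 NIH3T3 cells were plated in six-well plates or petri dishes and collected after treatment. Pellets were rinsed twice in PBS, then stained with 5 μl of 7-AAD and 5 μl of annexin-V-FITC in 100 μl annexin-V binding buffer. After 15 min, events were acquired on an LSRII with FACS Diva 6.1.1 and analyzed in FlowJo v10.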

NIH3T3 cells [3] = assay: Simultaneous ferroptosis and necroptosis (RSL3 plus TZ), 7-AAD/annexin V flow cytometry; assay type: cell-based, murine
Method: (§1) To induce necroptosis in a human cell line, HT29 cells were stimulated at the indicated time points with 20 ng/ml human TNFα (Biolegend), 1 μM SMAC-mimetics (Birinapant, Chemietek), and 20 μM zVAD-fmk (Selleckchem, herein referred to as zVAD). For the induction of necroptosis in NIH3T3 cells, cells were incubated with 20 ng/ml TNF-α and 20 μM zVAD for indicated time points. […] Cells were seeded in six-well plates or petri dishes. […] After indicated time points, cells were collected and prepared for flow cytometry, immunoblotting, and/or LDH release assays.
(§2) Cells were harvested and the pellets were washed twice in PBS and stained with 5 μl of 7-AAD (BD Biosciences) and 5 μl of annexin-V-FITC (BD Biosciences) added to 100 μl annexin-V binding buffer (BD Biosciences). After 15 min, cells were recorded on the LSRII with the FACS Diva 6.1.1 software (BD Biosciences) and subsequently analyzed with the FlowJo v10 software (Tree Star).

NIH3T3 cells [4] = assay: Ferroptosis inducers (FINs)/ferroptocide, 7-AAD/annexin V flow cytometry; assay type: cell-based, murine; conditions: individual replicates
HT1080 cells = assay: as above; assay type: cell-based, human; conditions: for double-negative events (7-AAD/annexin V): alone (DMSO) or with Fer-1 1 µM
HT29 cells = assay: TSZ-induced necroptosis, 7-AAD/annexin V flow cytometry; assay type: cell-based, human; conditions: Nec-1f 10 µM
Method: as §1, §2

CD10-135 cells = assay: FINs/ferroptocide, LDH release assay; assay type: cell-based, human; design: LDH release: unit not given here; conditions: for LDH release: Nec-1f 30 µM
[5] = Inhibited co-autoxidation of egg phosphatidylcholine liposomes and STY-BODIPY (radical-trapping antioxidant activity)
Method: Inhibitors were then added (5 μl aliquots) at desired concentrations to the appropriate wells followed by vigorous mixing. […] Experiments were performed in triplicate using HPLC grade solvents and kinetic data is given as an average of three independent measurements. […]

C57Bl/6 N mice = assay: Bilateral kidney ischemia-reperfusion injury, severe model (38 min ischemia), survival; conditions: single dose 2 mg/kg body weight before reperfusion
RIPK1 = assay: Western blot of pRIPK1 (S166) in TSZ-treated HT29 cells; assay type: cell-based, human; conditions: Nec-1s 10 µM, Fer-1 1 µM, Nec-1f 10 µM
Method: as §1
Cells were lysed in ice-cold 10 mM Tris-HCl, pH 7.5, 50 mM NaCl, 1% Triton X-100, 30 mM sodium pyrophosphate, 50 mM NaF, 100 μM Na3VO4, 2 μM ZnCl2, and 1 mM phenylmethylsulfonyl fluoride (PMSF, modified Frackelton buffer) for 30 min on ice. Insoluble material was removed by centrifugation (14 000×g, 30 min, 4 °C). Protein concentration was determined using a commercial Bradford assay kit according to the manufacturer’s instructions (Thermo Fisher). Equal amounts of protein (typically 30 μg per lane) were resolved on a 4%−15% gradient SDS/PAGE gel and transferred to a PVDF membrane (BIO-RAD). Primary antibody incubation was performed for anti-pS166-RIPK1 (Cell Signaling, Cat# 65746, 1:1000 dilution), anti-pS358-MLKL, (Abcam, ab187091, 1:1000 dilution), anti-MLKL (Genetex, GTX107538, 1:1000 dilution) and anti-β-Actin (Cell Signaling, Cat# 3700S, 1:1000 dilution). Secondary antibodies (anti-mouse, HRP-linked antibody, Cell Signaling, Cat# 7076S; anti-rabbit, HRP-linked antibody, Cell Signaling, Cat# 7074S) were applied at concentrations of 1:5.000 (also see Supplementary Table 1 for details). Proteins were then visualized by enhanced chemiluminescence (ECL; Amersham Biosciences).

CN1C(=O)C(Cc2c[nH]c3c(Cl)cccc23)NC1=S (centres unmarked) [Nec-1f]
LDH release ([1]; primary kidney tubular cells, alone (DMSO) or with Fer-1 or Nec-1f 30 µM): 29.82% and 33.38% and 28.13% | Effect on RSL3-induced LDH release ([1]; primary renal tubular cells): prevented | double-negative events (7-AAD/annexin V) (NIH3T3 cells [2]; NIH3T3, 1.13 µM RSL3 6 h): 88.9% and 61.8% and 72.9% and 86.1% and 70.3% and 57.8% and 80.3% | double-negative events (7-AAD/annexin V) (NIH3T3 cells [2]; NIH3T3, 10 µM FIN56 24 h): 88.1% and 87.8% and 92.6% | Rescue from necrosis induced by RSL3 plus TZ (NIH3T3 cells [3]; NIH3T3, 16 h): Nec-1f does; also recorded: maintained cell viability | 7-AAD/annexin V flow cytometry, source data of bar graph Fig3c (NIH3T3 cells [3]; NIH3T3, RSL3 (1.13 µM) + TZ 16 h with inhibitor): 75.7% and 76% and 68% | cells in 7-AAD/annexin V flow cytometry (FigS9b) (NIH3T3 cells [4]; Erastin-induced ferroptosis): 83.1% and 77.0% and 78.0% and 47.0% | cells in 7-AAD/annexin V flow cytometry (FigS9b) (NIH3T3 cells [4]; FIN56-induced ferroptosis): 88.0% and 64.0% | cells in 7-AAD/annexin V flow cytometry (FigS9b) (NIH3T3 cells [4]; FINO2-induced ferroptosis): 75.0% and 57.0% | cells in 7-AAD/annexin V flow cytometry (FigS9b) (NIH3T3 cells [4]; Ferroptocide-induced cell death): 80.0% and 8.0% | cells in 7-AAD/annexin V flow cytometry (FigS9b) (NIH3T3 cells [4]; RSL3-induced ferroptosis): 80.0% and 84.0% | Prevention of FINO2-induced ferroptosis (HT1080 cells; HT1080): less effective | double-negative events (7-AAD/annexin V) (HT1080 cells; HT1080, 1.13 µM RSL3 6 h, Nec-1s 30 µM, Nec-1f 30 µM): 88% and 71.9% and 83.1% and 89.5% | double-negative events (7-AAD/annexin V) (HT1080 cells; HT1080, 10 µM FIN56 24 h, Nec-1s 30 µM, Nec-1f 30 µM): 82.6% and 86.1% and 84.4% | double-negative events (7-AAD/annexin V) (HT1080 cells; HT1080, 10 µM FINO2 24 h, Nec-1s 30 µM, Nec-1f 30 µM): 80.8% and 51.5% and 65.9% and 53.8% | Inhibition of cell death induction by FINs/ferroptocide (HT1080 cells; HT1080, Fer-1 1 µM, Nec-1s 30 µM, Nec-1f 30 µM): inhibition of cell death induction | 7-AAD/annexin V flow cytometry, source data of bar graph Fig2e (HT29 cells; HT29, TSZ (TNFα 20 ng/ml, birinapant 1 µM, zVAD-fmk 20 µM) 16 h): 80.1% and 85.8% and 92.9% and 83.9% and 82.2% and 61.2% and 88.8% and 88.1% | Protection against TSZ-induced necroptosis (7-AAD/annexin V, words) (HT29 cells; HT29, TSZ): maintained double negativity | LDH release (CD10-135 cells; CD10-135, FIN56 alone (FIN) or with Fer-1, Nec-1s): 25.01 and 21.5704 and 29.6875 | LDH release (CD10-135 cells; CD10-135, FINO2 alone (FIN) or with Fer-1, Nec-1s): 27.07 and 34.1078 and 34.3349 | LDH release (CD10-135 cells; CD10-135, RSL3 alone (FIN) or with Fer-1, Nec-1s): 36.35 and 26.8291 | LDH release (CD10-135 cells; CD10-135, erastin alone (FIN) or with Fer-1, Nec-1s): 25.13 and 17.5 and 32.5 | LDH release (CD10-135 cells; CD10-135, ferroptocide alone (FIN) or with Fer-1, Nec-1s): 89.05 and 90.3713 | Effect on FIN-induced LDH release (CD10-135 cells; CD10-135 cells): reversed | RTA activity in co-autoxidation of egg phosphatidylcholine lipids in STY-BODIPY-embedded liposomes [5]: devoid of RTA activity | ΔSTY-BODIPY ([5]; 2 µM Nec-1f, time 53820 s): -0.4045 µM | ΔSTY-BODIPY ([5]; 2 µM Nec-1f, time 53880 s): -0.4072 µM | ΔSTY-BODIPY ([5]; 2 µM Nec-1f, time 53940 s): -0.4054 µM | ΔSTY-BODIPY ([5]; 2 µM Nec-1f, time 54000 s): -0.4034 µM | ΔSTY-BODIPY ([5]; 10 µM Nec-1f, time 53820 s): -0.5158 µM | ΔSTY-BODIPY ([5]; 10 µM Nec-1f, time 53880 s): -0.5141 µM | ΔSTY-BODIPY ([5]; 10 µM Nec-1f, time 53940 s): -0.5142 µM | ΔSTY-BODIPY ([5]; 10 µM Nec-1f, time 54000 s): -0.5122 µM | Survival after severe renal IRI vs vehicle (Kaplan-Meier, words) (C57Bl/6 N mice): significantly higher | Phosphorylation of RIPK1 at S166, western blot (RIPK1): prevented phosphorylation at S166 in RIPK1
